How the values were obtained:
Mus musculus [1] = assay: Anticonvulsive activity in pentylenetetrazole-induced seizure albino mouse model assessed as latecy time at 100 mg/kg, ig administered 30 mins prior to pentylenetetrazole challenge and mesured for 60 mins (reference value: 5.79 +/- 0.58 min); assay type: functional
Mus musculus [2] = assay: Anticonvulsive activity in pentylenetetrazole-induced seizure albino mouse model assessed as number of clonic and tonic convulsion at 100 mg/kg, ig administered 30 mins prior to pentylenetetrazole challenge and mesured per animal for 60 mins (reference value: 3.58 +/- 0.42); assay type: functional
Mus musculus [3] = assay: Anticonvulsive activity in pentylenetetrazole-induced seizure albino mouse model assessed as proportion of animals with clonic convulsion at 100 mg/kg, ig administered 30 mins prior to pentylenetetrazole challenge and mesured for 60 mins (reference value: 100 %); assay type: functional
Mus musculus [4] = assay: Anticonvulsive activity in pentylenetetrazole-induced seizure albino mouse model assessed as proportion of animals with tonic convulsion at 100 mg/kg, ig administered 30 mins prior to pentylenetetrazole challenge and mesured for 60 mins (reference value: 100%); assay type: functional
Mus musculus [5] = assay: Anticonvulsive activity in albino mouse assessed as protection against pentylenetetrazole-induced seizure by measuring severity of convulsion at 100 mg/kg, ig administered 30 mins prior to pentylenetetrazole challenge and mesured for 60 mins (reference value: 5.83 +/- 0.17); assay type: functional
Mus musculus [6] = assay: Anticonvulsive activity in pentylenetetrazole-induced seizure albino mouse model assessed as duration time of convulsion period at 100 mg/kg, ig administered 30 mins prior to pentylenetetrazole challenge and mesured for 60 mins (reference value: 12 +/- 1.34 min); assay type: functional
Mus musculus [7] = assay: Anticonvulsive activity in pentylenetetrazole-induced seizure albino mouse model assessed as lifetime of animal to death at 100 mg/kg, ig administered 30 mins prior to pentylenetetrazole challenge and mesured for 60 mins (reference value: 17.45 +/- 1.85 min); assay type: functional
Mus musculus [8] = assay: Anticonvulsive activity in pentylenetetrazole-induced seizure albino mouse model assessed as lethality at 100 mg/kg, ig administered 30 mins prior to pentylenetetrazole challenge and mesured for 60 mins (reference value: 91.7%); assay type: functional
[9] = Toxicity in albino mouse assessed as motor coordination impairment by measuring animal fall-off from rod before 1 min at 100 mg/kg, ig administered 30 mins prior to test by rotarod test (reference value: 17%); assay type: organism-based; settings: in vivo, po
[10] = Toxicity in albino mouse assessed as motor coordination impairment by measuring animal fall-off from rod before 2 mins at 100 mg/kg, ig administered 30 mins prior to test by rotarod test (reference value: 33%); assay type: organism-based; settings: in vivo, po
[11] = Toxicity in albino mouse assessed as motor coordination impairment by measuring animal fall-off from rod before 3 mins at 100 mg/kg, ig administered 30 mins prior to test by rotarod test (reference value: 33%); assay type: organism-based; settings: in vivo, po, 0.05 h
[12] = Toxicity in albino mouse assessed as motor coordination impairment by measuring animal fall-off from rod before 5 mins at 100 mg/kg, ig administered 30 mins prior to test by rotarod test (reference value: 50%); assay type: organism-based; settings: in vivo, po
Mus musculus [13] = assay: Anticonvulsive activity in pentylenetetrazole-induced seizure albino mouse model assessed as decrease in time of death at 100 mg/kg, ig administered 30 mins prior to pentylenetetrazole challenge and mesured for 60 mins relative to control; assay type: functional
[14] = Acute toxicity in albino mouse assessed as decrease in motor activity at 3000 to 5000 mg/kg, ig measured after 30 mins to 1 hr; assay type: organism-based; settings: in vivo, po
[15] = Acute toxicity in ig dosed albino mouse measured for 14 days; assay type: organism-based; settings: in vivo, po
[16] = Acute toxicity in albino mouse assessed as death at 1000 to 5000 mg/kg, ig measured for 14 days; assay type: organism-based; settings: in vivo, po, 336 h
[17] = Acute toxicity in albino mouse assessed as lateral position at 1000 to 5000 mg/kg, ig measured for 14 days; assay type: organism-based; settings: in vivo, po, 336 h
[18] = Acute toxicity in albino mouse assessed as blepharoptosis at 1000 to 5000 mg/kg, ig measured for 14 days; assay type: organism-based; settings: in vivo, po, 336 h
[19] = Acute toxicity in albino mouse assessed as hypersalivation at 1000 to 5000 mg/kg, ig measured for 14 days; assay type: organism-based; settings: in vivo, po, 336 h
[20] = Acute toxicity in albino mouse assessed as diarrhoea at 1000 to 5000 mg/kg, ig measured for 14 days; assay type: organism-based; settings: in vivo, po, 336 h
[21] = Acute toxicity in albino mouse assessed as effect on muscle movement at 1000 to 5000 mg/kg, ig measured for 14 days; assay type: organism-based; settings: in vivo, po, 336 h
[22] = Acute toxicity in albino mouse assessed as effect on skeletal muscle tone at 1000 to 5000 mg/kg, ig measured for 14 days; assay type: organism-based; settings: in vivo, po, 336 h
Mus musculus [23] = assay: Anticonvulsive activity in pentylenetetrazole-induced seizure albino mouse model assessed as lengthened latecy of convulsion at 100 mg/kg, ig administered 30 mins prior to pentylenetetrazole challenge and mesured for 60 mins relative to control; assay type: functional
Mus musculus [24] = assay: Anticonvulsive activity in pentylenetetrazole-induced seizure albino mouse model assessed as decrease in severity of convulsion at 100 mg/kg, ig administered 30 mins prior to pentylenetetrazole challenge and mesured for 60 mins relative to control; assay type: functional
Mus musculus [25] = assay: Anticonvulsive activity in pentylenetetrazole-induced seizure albino mouse model assessed as decrease in duration of convulsive period at 100 mg/kg, ig administered 30 mins prior to pentylenetetrazole challenge and mesured for 60 mins relative to control; assay type: functional
Mus musculus [26] = assay: Anticonvulsive activity in pentylenetetrazole-induced seizure albino mouse model assessed as latency time at 300 mg/kg, ig administered 30 mins prior to pentylenetetrazole challenge and mesured for 60 mins (reference value: 5.79 +/- 0.58 min); assay type: functional
Mus musculus [27] = assay: Anticonvulsive activity in pentylenetetrazole-induced seizure albino mouse model assessed as proportion of animals with clonic convulsion at 300 mg/kg, ig administered 30 mins prior to pentylenetetrazole challenge and mesured for 60 mins (reference value: 100 %); assay type: functional
Mus musculus [28] = assay: Anticonvulsive activity in pentylenetetrazole-induced seizure albino mouse model assessed as proportion of animals with tonic convulsion at 300 mg/kg, ig administered 30 mins prior to pentylenetetrazole challenge and mesured for 60 mins (reference value: 100%); assay type: functional
Mus musculus [29] = assay: Anticonvulsive activity in albino mouse assessed as protection against pentylenetetrazole-induced seizure by measuring severity of convulsion at 300 mg/kg, ig administered 30 mins prior to pentylenetetrazole challenge and mesured for 60 mins (reference value: 5.83 +/- 0.17); assay type: functional
Mus musculus [30] = assay: Anticonvulsive activity in pentylenetetrazole-induced seizure albino mouse model assessed as duration time of convulsion period at 300 mg/kg, ig administered 30 mins prior to pentylenetetrazole challenge and mesured for 60 mins (reference value: 12 +/- 1.34 min); assay type: functional
Mus musculus [31] = assay: Anticonvulsive activity in pentylenetetrazole-induced seizure albino mouse model assessed as lifetime of animal to death at 300 mg/kg, ig administered 30 mins prior to pentylenetetrazole challenge and mesured for 60 mins (reference value: 17.45 +/- 1.85 min); assay type: functional
Mus musculus [32] = assay: Anticonvulsive activity in pentylenetetrazole-induced seizure albino mouse model assessed as lethality at 300 mg/kg, ig administered 30 mins prior to pentylenetetrazole challenge and mesured for 60 mins (reference value: 91.7%); assay type: functional
[33] = Toxicity in albino mouse assessed as motor coordination impairment by measuring animal fall-off from rod before 1 min at 300 mg/kg, ig administered 30 mins prior to test by rotarod test (reference value: 17%); assay type: organism-based; settings: in vivo, po
[34] = Toxicity in albino mouse assessed as motor coordination impairment by measuring animal fall-off from rod before 2 mins at 300 mg/kg, ig administered 30 mins prior to test by rotarod test (reference value: 33%); assay type: organism-based; settings: in vivo, po
[35] = Toxicity in albino mouse assessed as motor coordination impairment by measuring animal fall-off from rod before 3 mins at 300 mg/kg, ig administered 30 mins prior to test by rotarod test (reference value: 33%); assay type: organism-based; settings: in vivo, po, 0.05 h
[36] = Toxicity in albino mouse assessed as motor coordination impairment by measuring animal fall-off from rod before 5 mins at 300 mg/kg, ig administered 30 mins prior to test by rotarod test (reference value: 50%); assay type: organism-based; settings: in vivo, po
Mus musculus [37] = assay: Anticonvulsive activity in pentylenetetrazole-induced seizure albino mouse model assessed as number of clonic and tonic convulsion at 300 mg/kg, ig administered 30 mins prior to pentylenetetrazole challenge and mesured per animal for 60 mins (reference value: 3.58 +/- 0.42); assay type: functional

Row | SMILES | Time (Mus musculus [1]) | Activity (Mus musculus [2]) | Activity (Mus musculus [3]) | Activity (Mus musculus [4]) | Activity (Mus musculus [5]) | Time (Mus musculus [6]) | Time (Mus musculus [7]) | Activity (Mus musculus [8]) | Activity [9] | Activity [10] | Activity [11] | Activity [12] | other results
1 | O=C(Cn1c(=O)[nH]c2ccccc2c1=O)Nc1ccccc1 | 10.57 min | 1.22 | 100% | 55.5% | 4.22 | 1.24 min | 7.14 min | 33.3% | 17% | 33% | 50% | 67% | 
2 | O=C(Cn1c(=O)[nH]c2ccccc2c1=O)NC1CCCCC1 | 3.8 min | 3.2 | 100% | 100% | 5.6 | 13.11 min | 11.53 min | 80% | 17% | 33% | 50% | 50% | 
3 | O=C(Cn1c(=O)[nH]c2ccccc2c1=O)NCc1ccccc1 | 4.96 min | 3 | 100% | 100% | 5.6 | 14.05 min | 17.5 min | 80% | 17% | 33% | 50% | 50% | 
4 | COc1ccccc1CNC(=O)Cn1c(=O)[nH]c2ccccc2c1=O | 15.14 min | 2.4 | 80% | 80% | 4.4 | 7.25 min | 12.45 min | 60% | 50% | 67% | 67% | 83% | 
5 | O=C(Cn1c(=O)[nH]c2ccccc2c1=O)NCc1ccc(Cl)cc1 | 4.82 min | 2 | 100% | 100% | 6 | 4.54 min | 9.36 min |  | 50% | 67% | 67% | 83% | fold change (FC) (Mus musculus [13]): 1.9
6 | CCCNC(=O)Cn1c(=O)[nH]c2ccccc2c1=O | 7.5 min | 1.4 | 100% | 100% | 5 | 2.2 min | 6.89 min | 40% | 33% | 50% | 50% | 50% | 
7 | O=C(Cn1c(=O)[nH]c2ccccc2c1=O)NCc1ccc(Cl)cc1Cl | 20.38 min | 1 | 80% | 40% | 2.8 | 0.45 min |  | 0% | 17% | 50% | 50% | 67% | Activity [14]: Toxic; LD50 at 336 h [15]: > 5000 mg/kg; Activity [16]: Non-Toxic; Activity [17]: Non-Toxic; Activity [18]: Non-Toxic; Activity [19]: Non-Toxic; Activity [20]: Non-Toxic; Activity [21]: Non-Toxic; Activity [22]: Non-Toxic; fold change (FC) (Mus musculus [23]): 3.5; fold change (FC) (Mus musculus [24]): 2.1; fold change (FC) (Mus musculus [25]): 26.7
8 | O=C(Cn1c(=O)[nH]c2ccccc2c1=O)NCCCc1ccccc1 | 15.51 min | 1.2 | 80% | 80% | 4 | 3.05 min | 12.16 min | 40% | 17% | 33% | 50% | 50% | 
9 | CCCC(CCC)C(=O)[O-].[Na+] [VALPROATE SODIUM] |  |  |  |  |  |  |  |  |  |  |  |  | Time (Mus musculus [26]): 26.65 min; Activity (Mus musculus [27]): 66.7%; Activity (Mus musculus [28]): 50%; Activity (Mus musculus [29]): 2.83; Time (Mus musculus [30]): 7.64 min; Time (Mus musculus [31]): 20.9 min; Activity (Mus musculus [32]): 16.7%; Activity [33]: 50%; Activity [34]: 67%; Activity [35]: 83%; Activity [36]: 100%; Activity (Mus musculus [37]): 2
10 | C=CCNC(=O)Cn1c(=O)[nH]c2ccccc2c1=O | 6.6 min | 2.2 | 100% | 80% | 5 | 9.8 min | 16.95 min | 60% | 33% | 50% | 50% | 67% | 
11 | O=C(Cn1c(=O)[nH]c2ccccc2c1=O)NCCc1ccccc1 | 11.43 min | 1.8 | 100% | 100% | 5.6 | 9.98 min | 17.79 min | 80% | 33% | 50% | 50% | 67% | 

— ChEMBL document CHEMBL4359850, “Synthesis, in vivo and in silico anticonvulsant activity studies of new derivatives of 2-(2,4-dioxo-1,4-dihydroquinazolin-3(2H)-yl)acetamide” (Eur J Med Chem, 2019)
